System: virulent Mtb strain H37Rv
Format: cell-based, Mycobacterium tuberculosis

Row | SMILES | EC80 (microbicidal activity, TB replication in macrophages) [µM] | microbicidal activity compared with S-CQ or racemic CQ
1 | CCN(CC)CCCC(C)Nc1ccnc2cc(Cl)ccc12 (racemic) [racemic CQ, chloroquine] | ~10 | 
2 | CCN(CC)CCC[C@H](C)Nc1ccnc2cc(Cl)ccc12 [S-CQ, (S)-chloroquine] | ~10 | 
3 | CCN(CC)CCC[C@@H](C)Nc1ccnc2cc(Cl)ccc12 [R-CQ, (R)-chloroquine] | 1 | significantly higher

Reference: patent US20160113919A1 (The Board of Trustees of the Leland Stanford Junior …, priority 2014, published 2016)
